Results reported in the METLIN SMRT retention time set (Domingo-Almenara et al. 2019).

Experiment: gradient 5% acetonitrile 3 min, to 50% in 2 min, to 85% in 15 min, held 3 min, 100 µL/min
Details: column: Zorbax Extend-C18 2.1 x 50 mm; eluents: water / acetonitrile, 0.1% formic acid
In short: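 Pure standards were analyzed in mixtures of ~100 molecules using HPLC coupled to a quadrupole time-of-flight mass spectrometer, in both positive and negative ionization mode. Separation used a Zorbax Extend-C18 column (2.1 × 50 mm, 1.8 μm) at 100 μL/min, with water and acetonitrile each containing 0.1% formic acid. Dead and dwell volumes were 40 μL and 900 μL, and data were collected over 3 months. Retention time was read from computationally picked adduct peaks, each inspected manually.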

Structure (SMILES) | RP-LC retention time [s]
Cc1cccc(NC(=O)N2CCc3[nH]cnc3C2c2ccncc2)c1C (stereo unspecified) | 546
Cc1noc(C2(NC(=O)C3CCCCC3)CCCCC2)n1 | 873
CCc1ccc(Oc2cc(N3CCC(C(=O)NCCc4cccnc4)CC3)ncn2)cc1 | 657
CN1C(=O)c2cccnc2Sc2cc(NC(=O)c3c(F)cccc3F)ccc21 | 754
CN1CCN(Cc2nn(C)c3c2CN(S(=O)(=O)c2ccccc2Cl)CC3)CC1 | 615
CCN(CC)C(=O)C1CCCN(c2ncnc3c2nc2n3CCCCC2)C1 (stereo unspecified) | 708
CC1=C(c2ccc(C)cc2)S(=O)(=O)N=C1N1CCCN(C(=O)C2CCCCC2)CC1 | 600
CCCN(CC1CCOC1)C(=O)C1CCCCC1 (stereo unspecified) | 827
CC(C)CCNC(=O)N1CC(c2nc(-c3ccccc3)no2)C2(CCOCC2)C1 (stereo unspecified) | 914
COc1ccc(-n2c(=O)c(C(=O)Nc3ccc(F)cc3Cl)c(O)c3cccnc32)cc1 | 1320
CCN(Cc1ccccc1)C(=O)Cn1cnc2onc(C)c2c1=O | 802
CC(C)c1cccc(NC(=O)Cn2ncc3c(N4CCN(c5ccccn5)CC4)ncnc32)c1 | 570
COc1ccccc1-c1ccc(N2CCC(C(=O)NN3CCOCC3)CC2)nn1 | 530
Cc1cccc(-c2noc(-c3nnn(Cc4nc(-c5cccc(Cl)c5)oc4C)c3C)n2)c1 | 1000
CCOc1cccc(-c2noc(Cn3c(=O)n(Cc4cccc(OC)c4)c(=O)c4sccc43)n2)c1 | 1150
COc1cc(-c2nnc(-c3ccc(C)c(S(=O)(=O)N(C)C)c3)o2)cc(OC)c1OC | 936
CC1CCN(C(=O)CN2C(=O)COc3ccc(C(=O)N4CCCCC4)cc32)CC1 | 716
CC(C)[C@@H](CN1CC[C@@](C)(c2cccc(O)c2)[C@@H](C)C1)NC(=O)[C@H]1Cc2ccc(O)cc2CN1 | 555
Cc1ccc(N2C(=O)N(Cc3cccc(F)c3)S(=O)(=O)c3cccnc32)cc1 | 1080
CCOC(=O)N1CCN(C(=O)CSc2ccc(-c3ccc(OC)cc3)nn2)CC1 | 716
COc1ccc(NC(=O)C2CCN(S(=O)(=O)c3ccc4[nH]c(=O)sc4c3)CC2)cc1Cl | 821
COc1ccc(C2Cn3nnc(-c4nc(-c5cccc(Cl)c5)no4)c3CO2)cc1 (stereo unspecified) | 1250

Structure (SMILES) | RP-LC retention time [s]
COc1ccc(NC(=O)Cn2c(=O)n(-c3ccc(C)cc3)c3ncccc32)cc1OC | 802
Cc1ccc(NC(=O)N2CCCC(Cn3cnc4cccnc43)C2)cc1F (stereo unspecified) | 718
CCC(CC)C(=O)NCC(c1ccc(Br)cc1)c1c[nH]c2ccccc12 (stereo unspecified) | 945
CCc1ccccc1NC(=O)Cn1nc2cc(C)nc(-c3ccccc3)n2c1=O | 854
CCCC(=O)N1CCC(c2nc(CCOCC3CC3)no2)C1 (stereo unspecified) | 729
COc1ccc(OCC(O)CN2CCN(c3ccc(Cl)cc3)CC2)cc1 (stereo unspecified) | 795
CCOc1ccc2nc(NC(=O)CCc3csc(NC(=O)c4ccco4)n3)sc2c1 | 844
CCCN(CCC)C(=O)c1cc2c(s1)N(C)CCCC2 | 1150
CCCN(c1ccc(OCC)cc1)c1nc(C(=O)OCC)nc2ccccc12 | 1120
CN1Cc2ccccc2-n2ccnc2C12CCN(C(=O)c1ccc(F)c(F)c1)CC2 | 619
CCCC(O)c1nc2ccccc2n1CC(=O)N(c1ccccc1)C(C)C (stereo unspecified) | 734
CCOc1ccccc1NC(=O)N1CCCC1c1cc(C)on1 (stereo unspecified) | 870
Cc1nc(-c2csc(S(=O)(=O)N3CCC(C(=O)NCc4ccc5c(c4)OCO5)CC3)c2)no1 | 832
O=C(NCc1csc(-c2ccccc2)n1)C1CCN(C(=O)Nc2ccc(F)cc2F)CC1 | 784
COC(=O)c1ccc(C(=O)NCC(O)c2cccc3ccccc23)cc1 (stereo unspecified) | 771
CCC(=O)N1CCC2(CC1)CC(CC(=O)N(C)C)CCO2 (stereo unspecified) | 598
CCCN(C)c1nccn2c(=O)n(CC(=O)Nc3ccc(Br)cc3)nc12 | 736
CC1CCN(C(=O)C2CCN(S(=O)(=O)c3ccc4c(c3)CCCC(=O)N4)CC2)CC1 | 744
CN(C)c1ccc(-c2noc(CCC(=O)N3CCC4(CC3)OCCO4)n2)cc1 | 789
O=c1n(Cc2ccccc2F)nc2c(S(=O)(=O)N3CCCCCC3)cccn12 | 938
CCn1c(=O)c2ccccc2n(Cc2nc(-c3ccc(OC(C)C)cc3)no2)c1=O | 1050
CCCCC(=O)Nc1ccc2nc(N3CCN(CCC)CC3)cc(C(=O)O)c2c1 | 590

Structure (SMILES) | RP-LC retention time [s]
Cc1ccccc1Oc1nccnc1N1CCC(C(=O)NC2CCCCCC2)CC1 | 1090
Cc1ccc(S(=O)(=O)N2CCC(F)(c3nc(CC(C)C)no3)CC2)cc1F | 1200
Cc1nc([C@@H]2CN(C(=O)c3sccc3C)C[C@H]2C(N)=O)n[nH]1 | 552
Cn1cc(C(=O)OCC2CCN(CCNS(C)(=O)=O)CC2)c2ccccc21 | 680
Cc1nc(-c2cccc(-c3noc(CNC(=O)Cc4ccc(Cl)cc4)n3)c2)cs1 | 986
CN1C(=O)c2cc(C(=O)NCc3ccccc3)nn2CC1(C)C(=O)NC1CCCCC1 (stereo unspecified) | 761
CN(C(=O)Cn1nc(Cc2cccnc2)c2ccccc2c1=O)c1ccc(Br)cc1 | 679
COCCNC(=O)CSc1cn(CC(=O)N2CC(C)OC(C)C2)c2ccccc12 (stereo unspecified) | 709
Cc1ccc2c(Nc3cccc(C(C)C)c3)c(C(=O)N3CCSCC3)cnc2n1 | 688
Cn1cnc(S(=O)(=O)N2CC(Oc3ccc(-c4noc(C5CC5)n4)cc3)C2)c1 | 794
CCN(C(=O)Cc1ccc(OC)cc1)c1nc(-c2ccccc2)cs1 | 1260
Cn1cc(C(CNC(=O)Nc2cccc(Br)c2)c2cccnc2)c2ccccc21 (stereo unspecified) | 755
CCSc1nnc(NC(=O)c2cc(=O)c(OCc3cccc(OC)c3)cn2C)s1 | 685
CCc1nn2c(CNC(=O)c3ccccc3Br)c(C)nc2s1 | 636
CCN(C(=O)CSC1=Nc2ccccc2NC(CC(=O)OC)=C1)c1cccc(C)c1 | 1160
COc1ccccc1NC(=O)Nc1ccc2nc3n(c(=O)c2c1)CCC3 | 698
O=C(CCc1c(-c2ccc(Br)cc2)nc2ccccn12)Nc1ccc(F)c(F)c1 | 727
O=C(C1CCC(=O)N1S(=O)(=O)c1ccccc1)N1CCCCC1 (stereo unspecified) | 757
COc1ccc(S(=O)(=O)N2CCCC2C(N)=O)cc1 (stereo unspecified) | 593
CCc1csc(-c2ccc(N3CCN(C(=O)c4nn(C)c5ccccc45)CC3)nc2)n1 | 966
Cc1c(C(=O)C(=O)NCC2COc3ccccc3O2)c2ccccc2n1C (stereo unspecified) | 777
CNC(=O)c1ccc2c(c1)CCCN2S(=O)(=O)c1ccccc1 | 769
